According to ChEMBL document CHEMBL4138123, “Design, synthesis and biological evaluation of novel pyrazolochalcones as potential modulators of PI3K/Akt/mTOR pathway and inducers of apoptosis in breast cancer cells” (Eur J Med Chem, 2017):
Active and inactive are the calls of the source. The rule behind the calls is not given here.

Key:
SK-MEL-2 [1] = test: Cytotoxicity against human SK-MEL-2 cells assessed as cell growth at 0.01 uM after 48 hrs by sulforhodamine B assay relative to control; format: functional; conditions: SK-MEL-2, 48 h, read-out: Activity
HOP-92 [2] = test: Cytotoxicity against human HOP92 cells assessed as cell growth at 0.1 uM after 48 hrs by sulforhodamine B assay relative to control; format: functional; conditions: HOP-92, 48 h, read-out: Activity
SNB-75 [3] = test: Cytotoxicity against human SNB75 cells assessed as cell growth at 10 uM after 48 hrs by sulforhodamine B assay relative to control; format: functional; conditions: SNB-75, 48 h, read-out: Activity
SF-295 [4] = test: Cytotoxicity against human SF295 cells assessed as cell growth at 100 uM after 48 hrs by sulforhodamine B assay relative to control; format: functional; conditions: SF-295, 48 h, read-out: Activity
SNB-75 [5] = test: Cytotoxicity against human SNB75 cells assessed as cell growth at 1 uM after 48 hrs by sulforhodamine B assay relative to control; format: functional; conditions: SNB-75, 48 h, read-out: Activity
HOP-92 [6] = test: Cytotoxicity against human HOP92 cells assessed as cell growth at 1 uM after 48 hrs by sulforhodamine B assay relative to control; format: functional; conditions: HOP-92, 48 h, read-out: Activity
SNB-75 [7] = test: Cytotoxicity against human SNB75 cells assessed as cell growth at 0.1 uM after 48 hrs by sulforhodamine B assay relative to control; format: functional; conditions: SNB-75, 48 h, read-out: Activity
LOX IMVI [8] = test: Cytotoxicity against human LOXIMVI cells assessed as cell growth at 1 uM after 48 hrs by sulforhodamine B assay relative to control; format: functional; conditions: read-out: Activity
CAKI-1 [9] = test: Cytotoxicity against human Caki1 cells assessed as cell growth at 10 uM after 48 hrs by sulforhodamine B assay relative to control; format: functional; conditions: CAKI-1, 48 h, read-out: Activity
SNB-75 [10] = test: Cytotoxicity against human SNB75 cells assessed as cell growth at 100 uM after 48 hrs by sulforhodamine B assay relative to control; format: functional; conditions: SNB-75, 48 h, read-out: Activity
HOP-92 [11] = test: Cytotoxicity against human HOP92 cells assessed as cell growth at 0.01 uM after 48 hrs by sulforhodamine B assay relative to control; format: functional; conditions: HOP-92, 48 h, read-out: Activity
SK-MEL-2 [12] = test: Cytotoxicity against human SK-MEL-2 cells assessed as cell growth at 0.1 uM after 48 hrs by sulforhodamine B assay relative to control; format: functional; conditions: SK-MEL-2, 48 h, read-out: Activity
SK-MEL-2 [13] = test: Cytotoxicity against human SK-MEL-2 cells assessed as cell growth at 1 uM after 48 hrs by sulforhodamine B assay relative to control; format: functional; conditions: SK-MEL-2, 48 h, read-out: Activity
LOX IMVI [14] = test: Cytotoxicity against human LOXIMVI cells assessed as cell growth at 0.1 uM after 48 hrs by sulforhodamine B assay relative to control; format: functional; conditions: read-out: Activity
HOP-92 [15] = test: Cytotoxicity against human HOP92 cells assessed as cell growth at 10 uM after 48 hrs by sulforhodamine B assay relative to control; format: functional; conditions: HOP-92, 48 h, read-out: Activity
SF-295 [16] = test: Cytotoxicity against human SF295 cells assessed as cell growth at 1 uM after 48 hrs by sulforhodamine B assay relative to control; format: functional; conditions: SF-295, 48 h, read-out: Activity
SF-295 [17] = test: Cytotoxicity against human SF295 cells assessed as cell growth at 0.01 uM after 48 hrs by sulforhodamine B assay relative to control; format: functional; conditions: SF-295, 48 h, read-out: Activity
SK-MEL-2 [18] = test: Cytotoxicity against human SK-MEL-2 cells assessed as cell growth at 100 uM after 48 hrs by sulforhodamine B assay relative to control; format: functional; conditions: SK-MEL-2, 48 h, read-out: Activity
LOX IMVI [19] = test: Cytotoxicity against human LOXIMVI cells assessed as cell growth at 100 uM after 48 hrs by sulforhodamine B assay relative to control; format: functional; conditions: read-out: Activity
SNB-75 [20] = test: Cytotoxicity against human SNB75 cells assessed as growth inhibition after 48 hrs by sulforhodamine B assay; format: functional; conditions: SNB-75, 48 h
CAKI-1 [21] = test: Cytotoxicity against human Caki1 cells assessed as cell growth at 1 uM after 48 hrs by sulforhodamine B assay relative to control; format: functional; conditions: CAKI-1, 48 h, read-out: Activity
CAKI-1 [22] = test: Cytotoxicity against human Caki1 cells assessed as growth inhibition after 48 hrs by sulforhodamine B assay; format: functional; conditions: CAKI-1, 48 h
HOP-92 [23] = test: Cytotoxicity against human HOP92 cells assessed as growth inhibition after 48 hrs by sulforhodamine B assay; format: functional; conditions: HOP-92, 48 h
CAKI-1 [24] = test: Cytotoxicity against human Caki1 cells assessed as cell growth at 0.1 uM after 48 hrs by sulforhodamine B assay relative to control; format: functional; conditions: CAKI-1, 48 h, read-out: Activity
HOP-92 [25] = test: Cytotoxicity against human HOP92 cells assessed as cell growth at 100 uM after 48 hrs by sulforhodamine B assay relative to control; format: functional; conditions: HOP-92, 48 h, read-out: Activity
SF-295 [26] = test: Cytotoxicity against human SF295 cells assessed as cell growth at 10 uM after 48 hrs by sulforhodamine B assay relative to control; format: functional; conditions: SF-295, 48 h, read-out: Activity
LOX IMVI [27] = test: Cytotoxicity against human LOXIMVI cells assessed as cell growth at 0.01 uM after 48 hrs by sulforhodamine B assay relative to control; format: functional; conditions: read-out: Activity
SF-295 [28] = test: Cytotoxicity against human SF295 cells assessed as cell growth at 0.1 uM after 48 hrs by sulforhodamine B assay relative to control; format: functional; conditions: SF-295, 48 h, read-out: Activity
CAKI-1 [29] = test: Cytotoxicity against human Caki1 cells assessed as cell growth at 0.01 uM after 48 hrs by sulforhodamine B assay relative to control; format: functional; conditions: CAKI-1, 48 h, read-out: Activity
SF-295 [30] = test: Cytotoxicity against human SF295 cells assessed as growth inhibition after 48 hrs by sulforhodamine B assay; format: functional; conditions: SF-295, 48 h
CAKI-1 [31] = test: Cytotoxicity against human Caki1 cells assessed as cell growth at 100 uM after 48 hrs by sulforhodamine B assay relative to control; format: functional; conditions: CAKI-1, 48 h, read-out: Activity
SK-MEL-2 [32] = test: Cytotoxicity against human SK-MEL-2 cells assessed as cell growth at 10 uM after 48 hrs by sulforhodamine B assay relative to control; format: functional; conditions: SK-MEL-2, 48 h, read-out: Activity
MCF7 [33] = test: Downregulation of Akt protein expression in human MCF7 cells at 2 uM after 24 hrs by Western blot analysis; format: functional, cell-based
MCF7 [34] = test: Downregulation of mTOR protein expression in human MCF7 cells at 2 uM after 24 hrs by Western blot analysis; format: functional, cell-based
MCF7 [35] = test: Induction of apoptosis in human MCF7 cells assessed as necrotic cells at 2 uM after 24 hrs by Annexin-V FITC/propidium iodide staining-based FACS analysis (reference value: 0.2%); format: functional
MCF7 [36] = test: Cell cycle arrest in human MCF7 cells assessed as accumulation at S phase at 2 uM after 24 hrs by flow cytometric analysis (reference value: 79.1%); format: functional
MCF7 [37] = test: Induction of apoptosis in human MCF7 cells assessed as early apoptotic cells at 2 uM after 24 hrs by Annexin-V FITC/propidium iodide staining-based FACS analysis (reference value: 0.5%); format: functional
MCF7 [38] = test: Upregulation of PTEN protein expression in human MCF7 cells at 2 uM after 24 hrs by Western blot analysis; format: functional, cell-based
MCF7 [39] = test: Induction of intrinsic apoptosis in human MCF7 cells assessed as effect on mitochondrial membrane depolarization by measuring mean fluorescence intensity at 2 uM after 18 hrs by DiOC6 staining-based FACS analysis (reference value: 463); format: functional
MCF7 [40] = test: Cell cycle arrest in human MCF7 cells assessed as accumulation at G2/M phase at 2 uM after 48 hrs by flow cytometric analysis (reference value: 8.1%); format: functional
MCF7 [41] = test: Downregulation of PI3K mRNA expression in human MCF7 cells at 2 uM after 48 hrs by qRT-PCR analysis; format: functional, cell-based

COc1ccc(C(=O)/C=C/c2cc(-c3ccc4c(c3)OCO4)n[nH]2)cc1OC
growth at 0.01 µM (SK-MEL-2 [1]): 98% | growth at 0.1 µM (HOP-92 [2]): 87% | growth at 10 µM (SNB-75 [3]): -10% | growth at 100 µM (SF-295 [4]): -93% | growth at 1 µM (SNB-75 [5]): 76% | growth at 1 µM (HOP-92 [6]): 79% | growth at 0.1 µM (SNB-75 [7]): 76% | growth at 1 µM (LOX IMVI [8]): 97% | growth at 10 µM (CAKI-1 [9]): -51% | growth at 100 µM (SNB-75 [10]): -100% | growth at 0.01 µM (HOP-92 [11]): 85% | growth at 0.1 µM (SK-MEL-2 [12]): 95% | growth at 1 µM (SK-MEL-2 [13]): 107% | growth at 0.1 µM (LOX IMVI [14]): 99% | growth at 10 µM (HOP-92 [15]): -8% | growth at 1 µM (SF-295 [16]): 101% | growth at 0.01 µM (SF-295 [17]): 95% | growth at 100 µM (SK-MEL-2 [18]): -68% | growth at 100 µM (LOX IMVI [19]): -78% | LC50 (concentration killing 50% of cells) (SNB-75 [20]): 27.7 µM | TGI (SNB-75 [20]): 7.57 µM | growth at 1 µM (CAKI-1 [21]): 89% | LC50 (CAKI-1 [22]): 9.84 µM | TGI (CAKI-1 [22]): 4.33 µM | TGI (HOP-92 [23]): 8.11 µM | CC50 (HOP-92 [23]; read-out: LC50 (the source's name)): 62.2 µM | growth at 0.1 µM (CAKI-1 [24]): 100% | growth at 100 µM (HOP-92 [25]): -61% | growth at 10 µM (SF-295 [26]): -27% | growth at 0.01 µM (LOX IMVI [27]): 100% | growth at 0.1 µM (SF-295 [28]): 98% | growth at 0.01 µM (CAKI-1 [29]): 93% | LC50 (SF-295 [30]): 22.2 µM | TGI (SF-295 [30]): 6.15 µM | growth at 100 µM (CAKI-1 [31]): -65% | growth at 10 µM (SK-MEL-2 [32]): 39%

COc1ccc(C(=O)/C=C/c2cc(-c3cc(OC)c(OC)c(OC)c3)n[nH]2)cc1OC
growth at 0.01 µM (SK-MEL-2 [1]): 86% | growth at 1 µM (LOX IMVI [8]): 73% | growth at 10 µM (CAKI-1 [9]): -33% | growth at 0.1 µM (SK-MEL-2 [12]): 91% | growth at 1 µM (SK-MEL-2 [13]): 98% | growth at 0.1 µM (LOX IMVI [14]): 92% | Activity (MCF7 [33]): Active | Activity (MCF7 [34]): Active | Activity (MCF7 [35]): 0.1% | Activity (MCF7 [36]): 29.3% | growth at 100 µM (SK-MEL-2 [18]): -96% | growth at 100 µM (LOX IMVI [19]): -79% | Activity (MCF7 [37]): 1.4% | Activity (MCF7 [38]): Active | growth at 1 µM (CAKI-1 [21]): 94% | LC50 (CAKI-1 [22]): 19.4 µM | TGI (CAKI-1 [22]): 5.46 µM | growth at 0.1 µM (CAKI-1 [24]): 99% | Flu intensity (MCF7 [39]): 294 | growth at 0.01 µM (LOX IMVI [27]): 92% | growth at 0.01 µM (CAKI-1 [29]): 97% | growth at 100 µM (CAKI-1 [31]): -91% | Activity (MCF7 [40]): 13.1% | growth at 10 µM (SK-MEL-2 [32]): -81% | Activity (MCF7 [41]): Active
